pIC50: −log10 of the molar value.

We go through nine compounds from patent publication US20100249408A1, “USE OF NOVEL COMPOUND HAVING AFFINITY FOR AMYLOID, AND PROCESS FOR PRODUCTION OF THE SAME” (NIHON MEDI-PHYSICS CO., LTD., priority 2007, published 2010).

Series [1] concerns Salmonella typhimurium TA98. As to the kind of experiment: Reverse mutation test (Ames test), TA98. As to conditions: Table 6; 7 dosages (geometric ratio 4), maximum 5000 μg/plate. The format is cell-based. The protocol: (§1) In order to examine gene mutagenicity of Compounds 1, 2 and 4, reverse mutation test using Salmonella typhimurium TA98 and TA100 (hereinafter referred to as Ames test) was conducted.
(§2) The test was conducted without addition of S9mix and with addition of S9mix. Dimethylsulfoxide was used as a negative control. A positive control was 2-(2-furyl)-3-(5-nitro-2-furyl)acrylamide in case S9mix was not added, and 2-aminoanthracene in case S9 mix was added.
(§3) The amount of each sample to be added to the test plate was 7 dosages (geometric ratio 4) with the maximum dose being 5000 μg/plate. After a sample to be examined and a strain (TA98 or TA100), or a sample to be examined, S9mix and the strain were mixed together, the mixture was multilayered using soft agar on a medium of a test plate, and then incubated at 37° C. for 48 hours.
(§4) In order to examine gene mutagenicity of Compound 8, reverse mutation test using Salmonella typhimurium TA98 and TA100 (hereinafter referred to as Ames test) was conducted.
(§5) The test was conducted without addition of S9mix and with addition of S9mix. Dimethylsulfoxide was used as a negative control. A positive control was 2-(2-furyl)-3-(5-nitro-2-furyl)acrylamide in case S9mix was not added, and 2-aminoanthracene in case S9mix was added.
(§6) The amount of Compound 8 to be added to the test plate was 7 dosages (geometric ratio 3) with the maximum dose being 5000 μg/plate. After Compound 8 and a strain (TA98 or TA100), or Compound 8, S9mix and the strain were mixed together, the mixture was multilayered using soft agar on a medium of a test plate, and then incubated at 37° C. for 48 hours.

The target in series [2] is T1, amyloid (aggregated Aβ1-40) (Homo sapiens, UniProt P05067).
T1 construct: Aβ1-40 (Peptide Institute) was dissolved in phosphate buffer (pH 7.4); purchased Peptide Institute
T1 sequence (P05067 672-711 limits assumed): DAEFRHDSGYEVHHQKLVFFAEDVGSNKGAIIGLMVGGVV
As to the kind of experiment: Measurement of amyloid affinity: in vitro binding test, inhibition of [125I]3′-I-BTA-0 binding. The protocol:
Affinity of the present compounds with amyloid was examined by the following in vitro binding tests.
(1) Aβ1-40 (Peptide Institute) was dissolved in phosphate buffer (pH 7.4) and shaken at 37° C. for 62-72 hours, to obtain a suspension of aggregated Aβ (concentration: 1 mg/mL equivalent, hereinafter referred to as amyloid suspension in these Examples).
(3) According to the method described in a literature (Wang, Y., et al., J. Labeled Compounds Radiopharmaceut. 44, 5239 (2001)), [^125I]2-(3′-iodo-4′-aminophenyl)benzothiazole (hereinafter referred to as [^125I]3′-I-BTA-0) was prepared from a labeling precursor 2-(4′-aminophenyl)benzothiazole, and dissolved in ethanol. [^125I]sodium iodide of 12-71 MBq (10-30 μL in volume) was used for the production, to obtain [^125I]3′-I-BTA-0 of 1-22 MBq immediately after the synthesis.
(5) Samples in which [^125I]3′-I-BTA-0, each compound for evaluation and amyloid were dissolved in a 0.1% bovine serum albumin-containing phosphate buffer (pH 7.4) at final concentrations shown in Table 2 were prepared. The resulting samples were placed in each well (about 0.3 mL in volume) of a 96-well microplate.
(6) The microplate filled with the sample solutions was shaken at a given rate (400 rpm) at 22° C. for 3 hours. Then, each sample solution was filtered through a glass fiber filter (trade name: Mulutiscreen™-FC, manufactured by Millipore), to separate the [^125I3′-I-BTA-0 attached to amyloid from the [^125I]3′-I-BTA-0 free from amyloid.
(7) The glass fiber filter used for the filtration of each sample solution was washed with a 0.1% bovine serum albumin-containing phosphate buffer (pH 7.4) (0.5 mL×5), and radioactivity of the glass fiber filter was measured with an autowell gamma system (manufactured by Aloka, Type: ARC-301B).
(8) Separately, a solution containing 15 μmol/L of 6-Me-BTA-2, 400 pmol/L of [^125I]3′-I-BTA-0 and 1 μmol/L of Aβ1-40 in a 0.1% bovine serum albumin-containing phosphate buffer (pH 7.4) was prepared and subjected to the same procedures as described above in (6) and (7) to measure a radioactivity level. The measured radioactivity level was defined as the background radioactivity level, and used in the calculation of the inhibition ratio (hereinafter referred to as BG).
(9) Using the radioactivity levels measured above in (7) and (8), the inhibition ratio was determined by the following formula (1).
A graph in which values converted by probit transformation from the obtained inhibition ratios were plotted relative to logarithms of concentrations of compounds for evaluation was prepared to obtain an approximate straight line by the least square method. Using the line, the concentration of each compound for evaluation was determined, at which the radioactivity level is half of the level of the sample free from each compound for evaluation, and was defined as a 50% inhibition concentration of each compound (hereinafter referred to as IC50% value). Using the value as an indicator, affinity of each compound for evaluation with amyloid (aggregated Aβ1-40) was evaluated.

The test system of series [3] is Salmonella typhimurium TA100. As to the kind of experiment: Reverse mutation test (Ames test), TA100. The format is cell-based. The settings on record: Table 6; 7 dosages (geometric ratio 4), maximum 5000 μg/plate. The protocol: as §1, §2, §3, §4, §5, §6
(The Ames test detects mutagens through reverse mutation in bacteria.)

The next series concerns the target T2, amyloid (amylin) (Homo sapiens, UniProt P10997).
T2 construct: Amylin (human) (manufactured by Wako) was dissolved in phosphate buffer (pH 7.4); purchased Wako
T2 sequence (P10997 34-70 limits assumed): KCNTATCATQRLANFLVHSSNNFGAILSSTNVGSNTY
The series can be described thus: Inhibition of binding of Thioflavin T to amyloid derived from amylin. As to conditions: Thioflavin T 5 μmol/L, amyloid 2.6 μmol/L. The protocol:
Amylin is an amyloid accumulating in pancreas of type II diabetes.
(3) The amyloid suspension was dissolved in 50 mM phosphate buffer (pH 7.4) at a concentration of amylin of 15 μM.
(4) Samples in which each compound for evaluation and amyloid were dissolved in a 50 mM phosphate buffer (pH 7.4) at final concentrations shown in Table 9 were prepared.
(5) A sample in which 100 μL of 50 mM phosphate buffer (pH 7.4) and 50 μL of 50 mM glycin-NaOH buffer (pH 8.5) were mixed was made as a blank, and subjected to the same procedure as in (4) and used for a calculation of inhibition ratio (hereinafter referred to as BG).
(6) The microplate filled with the sample solutions was left to stand at room temperature for 30 hours. Then, fluorescence strength of each sample solution was measured (measurement conditions: excitation wavelength of 446nm, emission wavelength of 490 nm) with microplate reader (type: SPECTRA MAX GEMINI XS, manufactured by Molecular Devices) (hereinafter, A denotes the fluorescence strength in a sample with zero (0) concentration of each compound for evaluation, and B denotes the fluorescence strength in a sample with 1.5 μmol/L or higher concentration of each compound for evaluation).
(7) Using the fluorescence strength measured above in (6), the following formula (5): […]
was used to determine the inhibition ratio.

Series [4] deals with Salmonella typhimurium TA98 and TA100. The series can be described thus: Reverse mutation test (Ames test), overall judgment. The format is cell-based. As to conditions: TA98 and TA100, with and without S9mix, up to 5000 μg/plate (geometric ratio 4). As to the method:
as §1, §2, §3, §4, §5, §6

The nature of series [5]: Partition coefficient based on the octanol extraction method (logPoctanol). The settings on record: octanol / 10 mmol/L phosphate buffer (pH 7.4), radioactivity count. As to the method: 10 μL each of the prepared sample solution was respectively added to 2 mL of octanol, further, 2 mL of 10 mmol/L phosphate buffer (pH 7.4) was added, and stirred for 30 seconds. […] Using the obtained radioactivity count, log Poctanol was calculated in accordance with the equation (2).

Series [6] addresses T3, intracerebral amyloid (aggregated Aβ1-42 injected into amygdaloid nucleus) (Homo sapiens, UniProt P05067).
T3 construct: Aβ1-42 (manufactured by Peptide Institute) was dissolved in phosphate buffer (pH 7.4); purchased Peptide Institute
As to the kind of experiment: ex vivo autoradiogram using rats of amyloid injected model (Examples II-13, II-14). Set-up: species or system male Wistar rat. The settings on record: rat with Aβ1-42 amyloid suspension in one amygdaloid nucleus, tail vein, brain removed 60 minutes after injection. As to the method:
As a control, 2.5 μL of a phosphate buffered physiological saline solution (pH 7.4) was injected into an amygdaloid nucleus on the other side of the rat. The rats were examined 1 day after the injection of the amyloid suspension and the phosphate buffered physiological saline solution (pH 7.4).
(4) Brain was removed 60 minutes after the injection to prepare a brain slice of 10 μm in thickness with a microtome (type: CM3050S, manufactured by LEICA).

Series [7] is described as follows: Transferability into brain and clearance (Examples II-11, II-12, Comparative Example II-1). The settings on record: rats, intravenous injection, three animals. As to the method: Using the Compounds 10 and 11, a time course change of radioactive accumulation in brain of male Wistar rats (7-week old) was measured.
The rats were sacrificed by bleeding from abdominal artery, and brains were removed and subjected to measurement of mass of brains and further subjected to measurement of radioactivity (hereinafter referred to as A in this Example) with a single channel analyzer (detector type: SP-20 manufactured by OHYO KOKEN KOGYO Co., Ltd.) 2, 5, 30 and 60 minutes after the injection. Also, radioactivity (hereinafter referred to as B in this Example) of the rest of the whole body was measured in the same manner as above. Using these measurement results, radioactive accumulation per unit weight of brain (% ID/g) at the respective time points were calculated in accordance with the following formula (4).
Three animals were used for experiment at the respective time points.

For series [8] the following is noted: International Publication No. WO03/106439; cited from earlier work.
For series [9] the following is noted: [125I]-labeled compounds, normal mice; cited from earlier work.

T3 sequence (P05067 672-713): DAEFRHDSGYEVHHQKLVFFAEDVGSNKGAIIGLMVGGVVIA

For the compound `Oc1ccc(-c2cn3cc(Br)ccc3n2)cc1` [Compound 1, 6-bromo-2-(4′-hydroxyphenyl)imidazo[1,2-a]pyridine], the “Mutagenicity, TA98, with addition of S9mix” value in series [1] is on record as “Negative”. The “Mutagenicity, TA98, without addition of S9mix” value in series [1] is “Negative”. For the same compound, in [2], the negative-log IC50 (pIC50) is 8.36. Also, the “Mutagenicity, TA100, with addition of S9mix” value in series [3] is on record as “Negative”. In addition, the “Mutagenicity, TA100, without addition of S9mix” value in [3] was “Negative”. For the same compound, the “Inhibition ratio (%) of binding of amyloid (amylin) to Thioflavin T” value (from here on “Inhibition ratio (%)”) on amyloid (amylin) (compound 1.5 μmol/L) is given as 8.7%; on amyloid (amylin) (compound 15 μmol/L) it was 41.3%; at amyloid (amylin) (compound 30 μmol/L), 27.0%. Further, the “Judgment in the Ames test (gene mutagenicity)” value in series [4] was “negative”.

On to `Oc1ccc(-c2cn3cc(I)ccc3n2)cc1` [Compound 2, 2-(4′-hydroxyphenyl)-6-iodoimidazo[1,2-a]pyridine], for which, in series [1], the “Mutagenicity, TA98, with addition of S9mix” value is recorded as “Negative” and the “Mutagenicity, TA98, without addition of S9mix” value is given as “Negative”. In [2], the pIC50 was 7.34. Also, in series [3], the “Mutagenicity, TA100, with addition of S9mix” value is given as “Negative” and the “Mutagenicity, TA100, without addition of S9mix” value is on record as “Negative”. Moreover, at amyloid (amylin) (compound 1.5 μmol/L), the “Inhibition ratio (%)” value was 11.2%. The “Inhibition ratio (%)” value on amyloid (amylin) (compound 15 μmol/L) turned out to be 16.3%. In addition, the “Inhibition ratio (%)” value on amyloid (amylin) (compound 30 μmol/L) is reported as 32.0%. Also, in series [4], the “Judgment in the Ames test (gene mutagenicity)” value is recorded as “negative”.

Take `Oc1ccc(-c2cn3cc([123I])ncc3n2)cc1` [Compound 10, [^123I]-2-(4′-hydroxyphenyl)-6-iodoimidazo[1,2-a]pyrazine]: the logPoctanol value in series [5] turned out to be 2.3. For the same compound, the “Accumulation of radioactivity at intracerebral amyloid (ex vivo autoradiogram)” value in series [6] is given as “a marked accumulation of radioactivity was observed in the amygdaloid nucleus on the side to which the amyloid suspension was injected”. Further, the “Radioactive accumulation in brain per unit weight” value in [7] (after 2 min.) is recorded as 0.62 % ID/g; in series [7] (after 5 min.) it was 0.33 % ID/g; in [7] (after 30 min.) it was 0.08 % ID/g; in series [7] (after 60 min.), 0.02 % ID/g.

Turning to `Oc1ccc(-c2cn3cccc([123I])c3n2)cc1` [Compound 11, [^123I]-2-(4′-hydroxyphenyl)-8-iodoimidazo[1,2-a]pyridine], the logPoctanol value in series [5] amounted to 3.0. In addition, the “Accumulation of radioactivity at intracerebral amyloid (ex vivo autoradiogram)” value in series [6] is listed as “a marked accumulation of radioactivity was observed in the amygdaloid nucleus on the side to which the amyloid suspension was injected”. Further, the “Radioactive accumulation in brain per unit weight” value in series [7] (after 2 min.) stood at 0.65 % ID/g; in series [7] (after 5 min.), 0.43 % ID/g; in series [7] (after 30 min.), 0.09 % ID/g; in series [7] (after 60 min.) it was 0.03 % ID/g.

For `CC(=C(C#N)C#N)c1ccc2cc(N(C)CCF)ccc2c1` [FDDNP, 2-(1-{6-[(2-fluoroethyl)(methyl)amino]-2-naphthyl}ethylidene)malononitrile], the “Result in reverse mutation test” value in [8] is “positive”.

For the compound `CN(C)c1ccc(-c2nc3ccc(I)cc3o2)cc1` [IBOX, 6-iodo-2-[4′-(N,N-dimethylamino)phenyl]benzoxazole], the “Clearance from normal tissues” value in series [9] is recorded as “insufficient in clearance from normal tissues”.

On to `CN(C)c1ccc(-c2cn3cc(I)ccc3n2)cc1` [IMPY, 6-iodo-2-[4′-(N,N-dimethylamino)phenyl]imidazo[1,2-a]pyridine], for which, in series [8], the “Result in reverse mutation test” value is on record as “positive”.

With `CN(C)c1ccc(-c2nc3ccc(I)cc3s2)cc1` [TZDM, 6-iodo-2-[4′-(N,N-dimethylamino)phenyl]benzothiazole], the “Clearance from normal tissues” value in [9] is “insufficient in clearance from normal tissues”.

For the compound `CN(C)c1ccc(/C=C/c2ccc(I)cc2)cc1` [m-I-SB, (E)-4-dimethylamino-4′-iodostilbene], in series [9], the “Clearance from normal tissues” value was “insufficient in clearance from normal tissues”.

One may read the pIC50 as −log10 of the IC50, conventionally taken in molar units. Lower therefore signals a large IC50.
